Measured values taken from ChEMBL document CHEMBL5550092, “Synthesis and biological evaluation of triazolones/oxadiazolones as novel urease inhibitors” (Bioorg Med Chem, 2024).
Calls of active or inactive are those of the source. The calls are words filed in the database; no cut-off is given here.

How the values were obtained:
[1] = biological target: T1, Urease subunit alpha/Urease subunit beta (Helicobacter pylori (strain ATCC 700392 / 26695) (Campylobacterpylori)) (UniProt P69996+P14916); assay: (§1) Inhibition of Helicobacter pylori urease using urea as substrate assessed as decrease in ammonia production incubated for 0.5 hrs by indole phenol method; format: protein-complex assay
[2] = biological target: Urease subunit alpha/Urease subunit beta (Helicobacter pylori (strain ATCC 700392 / 26695) (Campylobacterpylori), UniProt P69996); assay: as §1; format: protein-complex assay
[3] = Cytotoxicity against human HepG2 cells assessed as cell viability at 250 ug/ml incubated for 72 hrs by CCK8 assay relative to control; format: toxicity, cell-based; conditions: at 250 µg/mL, read-out: Activity
[4] = Cytotoxicity against human SGC-7901 cells assessed as cell viability at 250 ug/ml incubated for 72 hrs by CCK8 assay relative to control; format: toxicity, cell-based; conditions: at 250 µg/mL, read-out: Activity
[5] = Cytotoxicity against human K562 cells assessed as cell viability at 250 ug/ml incubated for 72 hrs by CCK8 assay relative to control; format: toxicity, cell-based; conditions: at 250 µg/mL, read-out: Activity
[6] = Cytotoxicity against human L02 cells assessed as cell viability at 250 ug/ml incubated for 72 hrs by CCK8 assay relative to control; format: toxicity, cell-based; conditions: at 250 µg/mL, read-out: Activity
[7] = biological target: T1, Urease subunit alpha/Urease subunit beta (Helicobacter pylori (strain ATCC 700392 / 26695) (Campylobacterpylori)); assay: Inhibition of urease using urea as substrate assessed as decrease in ammonia production at 800 ug/ml preincubated for 100 min by indole phenol method; format: protein-complex assay; conditions: dose 800.0 µg/ml
[8] = biological target: T1, Urease subunit alpha/Urease subunit beta (Helicobacter pylori (strain ATCC 700392 / 26695) (Campylobacterpylori)); assay: Inhibition of urease using urea as substrate assessed as decrease in ammonia production at 800 ug/ml by indole phenol method; format: protein-complex assay; conditions: dose 800.0 µg/ml, time <= 120.0 min

Sequence of Urease subunit alpha/Urease subunit beta (P69996 whole entry): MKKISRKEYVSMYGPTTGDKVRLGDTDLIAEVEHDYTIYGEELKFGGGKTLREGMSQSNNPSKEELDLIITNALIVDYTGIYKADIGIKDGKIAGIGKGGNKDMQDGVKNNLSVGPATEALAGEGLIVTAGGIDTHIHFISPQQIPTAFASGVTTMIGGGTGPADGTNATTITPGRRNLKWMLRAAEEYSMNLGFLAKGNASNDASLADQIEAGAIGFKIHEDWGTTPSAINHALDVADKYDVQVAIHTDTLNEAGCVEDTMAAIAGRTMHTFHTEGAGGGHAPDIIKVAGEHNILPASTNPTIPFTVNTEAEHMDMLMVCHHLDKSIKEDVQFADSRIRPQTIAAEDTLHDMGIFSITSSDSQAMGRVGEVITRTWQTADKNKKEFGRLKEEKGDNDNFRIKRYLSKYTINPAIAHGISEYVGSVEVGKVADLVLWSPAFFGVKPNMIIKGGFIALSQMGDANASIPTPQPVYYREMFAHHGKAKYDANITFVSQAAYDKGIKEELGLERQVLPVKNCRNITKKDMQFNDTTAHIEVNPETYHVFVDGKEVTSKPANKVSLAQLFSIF
Sequence of Urease subunit alpha/Urease subunit beta (P14916 whole entry, further chain): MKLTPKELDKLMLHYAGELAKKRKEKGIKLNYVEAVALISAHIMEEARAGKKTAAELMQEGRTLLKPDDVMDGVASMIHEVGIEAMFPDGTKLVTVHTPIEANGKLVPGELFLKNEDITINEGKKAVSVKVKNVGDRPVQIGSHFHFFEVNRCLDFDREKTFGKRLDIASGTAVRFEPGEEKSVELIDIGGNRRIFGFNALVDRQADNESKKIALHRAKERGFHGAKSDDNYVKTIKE
T1 sequence (P14916 whole entry, looked up): as the sequence (P14916 whole entry, further chain) above
T1 sequence (P69996 whole entry, looked up): as the sequence (P69996 whole entry) above

COc1ccc(N2CC(Cc3n[nH]c(=O)o3)OC2=O)cc1 (configuration not stated)
inhibition [1]: inactive

O=c1[nH]nc(C(O)CNc2ccc(OCc3ccccc3)cc2)[nH]1 (configuration not stated)
IC50 [2]: 21.2 µM | viability at 72 h, 250 ug/ml [3]: 89.3% | viability at 72 h, 250 ug/ml [4]: 94.2% | viability at 72 h, 250 ug/ml [5]: 89.8% | viability at 72 h, 250 ug/ml [6]: 94.7%

CC(C)c1ccc(N2CC(Cc3n[nH]c(=O)o3)OC2=O)cc1 (configuration not stated)
IC50 [2]: 24.6 µM | viability at 72 h, 250 ug/ml [3]: 89.3% | viability at 72 h, 250 ug/ml [4]: 90.7% | viability at 72 h, 250 ug/ml [5]: 88.9% | viability at 72 h, 250 ug/ml [6]: 96.2%

CCc1cccc(N2CC(c3n[nH]c(=O)o3)OC2=O)c1 (configuration not stated)
IC50 [2]: 151 µM

CC(C)(C)c1ccc(N2CC(Cc3n[nH]c(=O)o3)OC2=O)cc1 (configuration not stated)
IC50 [2]: 56.8 µM

CCc1ccccc1N1CC(c2n[nH]c(=O)o2)OC1=O (configuration not stated)
IC50 [2]: 102 µM

CCc1ccc(N2CC(Cc3n[nH]c(=O)o3)OC2=O)cc1 (configuration not stated)
IC50 [2]: 46.1 µM

Cc1ccc(N2CC(c3n[nH]c(=O)o3)OC2=O)c(C)c1 (configuration not stated)
IC50 [2]: 98.7 µM

CCOc1ccc(NCC(O)c2n[nH]c(=O)[nH]2)cc1 (configuration not stated)
IC50 [2]: 46.8 µM

COc1cccc(N2CC(c3n[nH]c(=O)o3)OC2=O)c1 (configuration not stated)
IC50 [2]: 108 µM

Cc1cc(C)cc(NCC(O)c2n[nH]c(=O)[nH]2)c1 (configuration not stated)
IC50 [2]: 30.7 µM

CCc1ccccc1NCC(O)c1n[nH]c(=O)[nH]1 (configuration not stated)
IC50 [2]: 62.6 µM

CCc1ccc(N2CC(c3n[nH]c(=O)o3)OC2=O)cc1 (configuration not stated)
IC50 [2]: 162 µM

Cc1ccccc1NCC(O)c1n[nH]c(=O)[nH]1 (configuration not stated)
IC50 [2]: 93.5 µM

CCc1ccc(NCC(O)c2n[nH]c(=O)[nH]2)cc1 (configuration not stated)
IC50 [2]: 110 µM

COc1ccc(NCC(O)c2n[nH]c(=O)[nH]2)cc1 (configuration not stated)
inhibition [1]: inactive

Cc1cccc(NCC(O)c2n[nH]c(=O)[nH]2)c1 (configuration not stated)
IC50 [2]: 108 µM

O=C1OC(Cc2n[nH]c(=O)o2)CN1c1ccc(OCc2ccccc2)cc1 (configuration not stated)
IC50 [2]: 45.7 µM

COc1cccc(NCC(O)c2n[nH]c(=O)[nH]2)c1 (configuration not stated)
inhibition [1]: inactive

CCc1cccc(N2CC(Cc3n[nH]c(=O)o3)OC2=O)c1 (configuration not stated)
IC50 [2]: 22.1 µM | viability at 72 h, 250 ug/ml [3]: 93.1% | viability at 72 h, 250 ug/ml [4]: 89.3% | viability at 72 h, 250 ug/ml [5]: 95.3% | viability at 72 h, 250 ug/ml [6]: 98.7%

O=C1OC(Cc2n[nH]c(=O)o2)CN1c1cccc(OCc2ccccc2)c1 (configuration not stated)
IC50 [2]: 19.1 µM | viability at 72 h, 250 ug/ml [3]: 94.2% | viability at 72 h, 250 ug/ml [4]: 90.2% | viability at 72 h, 250 ug/ml [5]: 90.5% | viability at 72 h, 250 ug/ml [6]: 94.9%

COc1ccc(N2CC(c3n[nH]c(=O)o3)OC2=O)cc1 (configuration not stated)
inhibition [1]: inactive

CCOc1ccc(N2CC(Cc3n[nH]c(=O)o3)OC2=O)cc1 (configuration not stated)
IC50 [2]: 61.3 µM

O=C1OC(c2n[nH]c(=O)o2)CN1c1cccc(OCc2ccccc2)c1 (configuration not stated)
IC50 [2]: 20.7 µM | viability at 72 h, 250 ug/ml [3]: 92.4% | viability at 72 h, 250 ug/ml [4]: 87.6% | viability at 72 h, 250 ug/ml [5]: 90.7% | viability at 72 h, 250 ug/ml [6]: 98.8%

Cc1ccccc1N1CC(c2n[nH]c(=O)o2)OC1=O (configuration not stated)
IC50 [2]: 186 µM

Cc1ccc(N2CC(c3n[nH]c(=O)o3)OC2=O)cc1 (configuration not stated)
inhibition [1]: inactive

O=C1OC(c2n[nH]c(=O)o2)CN1c1ccc(OCc2ccccc2)cc1 (configuration not stated)
IC50 [2]: 73.1 µM

Cc1cc(C)cc(N2CC(c3n[nH]c(=O)o3)OC2=O)c1 (configuration not stated)
inhibition [1]: inactive

O=C1OC(Cc2n[nH]c(=O)o2)CN1c1ccccc1 (configuration not stated)
IC50 [2]: 65.2 µM

O=c1[nH]nc(C(O)CNc2cccc(OCc3ccccc3)c2)[nH]1 (configuration not stated)
IC50 [2]: 6.31 µM | Ki [2]: 2.24 µM | viability at 72 h, 250 ug/ml [3]: 90.3% | viability at 72 h, 250 ug/ml [4]: 93.4% | viability at 72 h, 250 ug/ml [5]: 91.6% | viability at 72 h, 250 ug/ml [6]: 95.4%

Cc1cccc(N2CC(Cc3n[nH]c(=O)o3)OC2=O)c1 (configuration not stated)
IC50 [2]: 30.6 µM

CC(C)c1ccc(NCC(O)c2n[nH]c(=O)[nH]2)cc1 (configuration not stated)
IC50 [2]: 51.4 µM

CCc1cccc(NCC(O)c2n[nH]c(=O)[nH]2)c1 (configuration not stated)
IC50 [2]: 90.5 µM

O=C1OC(Cc2n[nH]c(=O)o2)CN1c1ccccc1OCc1ccccc1 (configuration not stated)
IC50 [2]: 1.21 µM | Ki [2]: 0.24 µM | inhibition [7]: Active | inhibition [8]: Dose-Dependent Effect | viability at 72 h, 250 ug/ml [3]: 91.5% | viability at 72 h, 250 ug/ml [4]: 94.6% | viability at 72 h, 250 ug/ml [5]: 93.8% | viability at 72 h, 250 ug/ml [6]: 96.5%

O=c1[nH]nc(C(O)CNc2ccccc2)[nH]1 (configuration not stated)
IC50 [2]: 85.2 µM

Cc1ccc(N2CC(Cc3n[nH]c(=O)o3)OC2=O)cc1 (configuration not stated)
inhibition [1]: inactive

Cc1ccc(NCC(O)c2n[nH]c(=O)[nH]2)c(C)c1 (configuration not stated)
IC50 [2]: 87.5 µM

O=C1OC(c2n[nH]c(=O)o2)CN1c1ccccc1 (configuration not stated)
inhibition [1]: inactive

CCOc1ccc(N2CC(c3n[nH]c(=O)o3)OC2=O)cc1 (configuration not stated)
IC50 [2]: 116 µM

Cc1ccc(N2CC(Cc3n[nH]c(=O)o3)OC2=O)cc1C (configuration not stated)
inhibition [1]: inactive

Cc1cccc(N2CC(c3n[nH]c(=O)o3)OC2=O)c1 (configuration not stated)
inhibition [1]: inactive

Cc1cc(C)cc(N2CC(Cc3n[nH]c(=O)o3)OC2=O)c1 (configuration not stated)
IC50 [2]: 10.1 µM | Ki [2]: 6.75 µM | viability at 72 h, 250 ug/ml [3]: 90.8% | viability at 72 h, 250 ug/ml [4]: 92.5% | viability at 72 h, 250 ug/ml [5]: 92.7% | viability at 72 h, 250 ug/ml [6]: 98%

CC(C)(C)c1ccc(NCC(O)c2n[nH]c(=O)[nH]2)cc1 (configuration not stated)
IC50 [2]: 40.2 µM

CCOc1ccccc1NCC(O)c1n[nH]c(=O)[nH]1 (configuration not stated)
IC50 [2]: 38.8 µM

Cc1ccc(NCC(O)c2n[nH]c(=O)[nH]2)cc1 (configuration not stated)
inhibition [1]: inactive
